The source of these data is US6303626A, “Pharmaceutical formulations in dry form for the oral administration of a cyclic quaternary ammonium compound” (Sanofi-Synthelabo, priority 1997, dated 2001).

Molecules are shown by their SMILES. Like-named read-outs stand apart in the source and are kept apart here.

The nature of data set [1]: Solubility in different media / solvents. To be noted: dmso, organic solvent or mixture; read-out: Solubility in dimethyl sulfoxide (DMSO). The class given is physicochemical.
A short description of the next data set: in vivo. To be noted: rat, 0.6% aqueous solution of compound A in methyl cellulose, read-out: Estimated absorption. The text has this: In this model, the permeability to compound A dissolved in dimethyl sulfoxide (DMSO) is 3.4.10^-7 cm/s. Furthermore, studies performed on the rat with a 0.6% aqueous solution of compound A in methyl cellulose have shown that its estimated absorption is less than 1%.

The subject of the next data set is Caco-2 cells. It is filed as in vitro ADME. To be noted: polysorbate 80 added to a solution of compound A in the cell culture medium. From the text:
This line is conventionally used for evaluating the ability of compounds to permeate the epithelium (Crit. Rev. Ther. Drug Carrier System. 1991, 8 (4), 105-330).
2. Evaluation of the Intestinal Transepithelial Passage of Compound A
Caco-2 cells are inoculated onto microporous polycarbonate filters covered with collagen. The cellular monolayer formed on the filter then makes it possible to separate an apical compartment (imitating the intestinal lumen) from a basal compartment (imitating the blood circulation).
The composition containing the compound to be studied is then placed on the apical side and the passage of this compound, dispersed or solubilized in Hank's medium, through this cellular barrier is evaluated by measuring the kinetics of its appearance on the basal side. This aqueous medium, of pH 6.5, has the following composition: NaCl=8.0 g/l; KCl=0.4 g/l; CaCl2 =0.19 g/l; MgCl2 =0.1 g/l; MgSO4 =0.1 g/l; Na2 HPO4 =0.09 g/l; KH2 PO4 =0.06 g/l; NaHCO3 =0.35 g/l; glucose=1 g/l; phenol red=0.01 g/l. […]
Various non-ionic surfactants or agents said to improve absorption, such as a C8 -C10 fatty acid or one of its derivatives, were added to the formulation described above, placed in Hank's medium, and the relative rate of intestinal transepithelial passage of compound A in these formulations was measured.

The nature of data set [2]: Solubility of compound A in water at the saturation point, 24 h, room temperature, UV spectrometry. The class given is physicochemical. To be noted: for solubility at 24 h: water, room temperature, read-out: Concentration of compound A (solubility in water at saturation). The text has this:
1. Solubility of Compound A

For `CC(C)Oc1cccc(CC(=O)N2CCC[C@](CC[N+]34CCC(c5ccccc5)(CC3)CC4)(c3ccc(Cl)c(Cl)c3)C2)c1` [compound A, (S)-1-{2-[3-(3,4-dichlorophenyl)-1-(3-iso-propoxyphenylacetyl)piperidin-3-yl]ethyl}-4-phenyl-1-azoniabicyclo[2.2.2]octane], the solubility in data set [1] was 168000 µg/mL. Besides, the Fa in the data set “in vivo” was under 1%. In the data set with Caco-2 cells, the “Effect of addition of polysorbate 80 on transepithelial passage” value is recorded as “substantially improves the transepithelial passage”. The “Solubility in water, dependence on pH” value in data set [2] (pH 1 to 9) is “low and not dependent on the pH”. In addition, the solubility at 24 h is 310 µg/mL in data set [2] (pH 1); 310 µg/mL in data set [2] (pH 3); 310 µg/mL in data set [2] (pH 5); 290 µg/mL in data set [2] (pH 7); 310 µg/mL in data set [2] (pH 9).
